Laboratory results reported in patent publication US20030133874A1, “Analytical method to evaluate animal models of neurofibrillary degeneration” (priority 2002, published 2003).

Columns and labels:
[1] = test system: tau; test: Tau hyperphosphorylation in vivo after intracerebral injection into nucleus basalis, immunoblot; conditions: rat nucleus basalis
Protocol: a) Analysis with mAbs Tau-1 and AT8. […] Brains were surgically removed, the nucleus basalis dissected and homogenized in ice-cold stop buffer after 30 to 360 min. Heatstable supernatants were immunoblotted with Tau-1, AT8, and Tau-1 after dephosphorylation on the blot for normalization purposes.
b) Relevant areas of immunoblots developed with ECL were scanned densitometrically and AT8 signals normalized to Tau-1 signals of phosphatase-treated blots. Results represent triplicate experiments, P values were determined by ANOVA.
c) Aliquots of extracts of vehicle and okadaic acid injected nuclei basali were immunoblotted with mAb AP422.
Male or female Long-Evans rats at approximately 3 to 4 months of age were housed in pairs with food and water available ad libidum. […] The tissue was held out of the operating field with forceps and the areas of injection were marked. Openings were made through the skull using a dentists drill and a number 5 carbide bur. […]
Heat-stable supernatants of triplicate experiments were analyzed by immunoblotting with AT8 (FIG. 5a) and AP422 (FIG. 5c). AT8 signals were quantitated after normalization to Tau-1 immunoreactivity on phosphatase-treated blots as described in example 3. […]

[2] = test system: tau; test: Induction of tau hyperphosphorylation in rat hippocampal brain slices, immunoblot; assay type: cell-based
Protocol: Freshly prepared hippocampal brain slices from adult Long-Evans rats were incubated under oxygenation in a physiological buffer for 1 hr with increasing concentrations of okadaic acid. Slices were homogenized in an ice-cold stop buffer by brief ultrasonication, and supernatants were boiled and analyzed for heatstable tau proteins by immunoblotting with reference mAbs Tau-1, AT8, and PHF-1 (FIG. 4a), and AP422 (FIG. 4b).
Adult male Long-Evans rats were anesthesized with CO2 and decapitated. Brains were removed within 2 min and the hippocampus was dissected using a blunt spatula. Hippocampi were cut into […] slices using a Mcllwain tissue chopper and placed into ice-cold low Ca^2+ Krebs-Bicarbonate buffer (pH 7.0): 124 mM NaCl, 3.33 mM KCl, 0.01 mM Ca^2+, 1.25 mM KH2P04, 1.33 mM MgS04, 25.7 mM NaHCO3, 10 mM D-Glucose, 20 mM HEPES. 5-8 slices were placed into a tube with 5 ml of low Ca^2+ buffer and incubated for at least 30 min at 33-34° C. with water saturated oxygenation (95% O2, 5% CO2.). After 30 min the solution was replaced with a buffer containing a physiological level of Ca^2+ (1.3 mM) and incubated for an additional 30 min. […] Aliquots of heat-stable supernatants, normalized for protein content, were analyzed on 10% SDS-PAGE, followed by immunoblotting with mAbs AT8 (1:200) and AP422 (1:5,000). […]

[3] = test system: tau; test: Tau phosphorylation in rat brain after prolonged pentobarbital anesthesia, immunoblot of heat-stable extracts; conditions: rats, five hours after 65 mg/kg
From the text: The animals at 5 hrs after the first anesthesia had to be anethesized a second time, as they had regained full consciousness. […] Recovered brains were homogenized and supernatants processed for immunoblotting with AT8 and Tau-1 as before. To normalize signal intensity with phosphorylation-dependent mAbs to total amount of tau protein present in each extract (specific labelling) sister blots with a five-fold reduced load of extract protein were subjected to exhaustive dephosphorylation with calf intestinal alkaline phosphatase prior to staining with Tau-1. Blots were developed by ECL and relevant areas of the blots were scanned densitometrically. […]
A second dose of anesthetic was administered immediately prior to brain removal when excision occurred two hours or more after the first anesthesia. Cortices were processed and tau proteins analyzed by Western-blotting as in Example 2, using mAbs Tau-1 and AT8. To allow quantitative immunochemical evaluation of tau phosphorylation sister blots of all samples with a five-fold lower protein load were subjected to exhaustive dephosphorylation to provide a relative measure for total load of tau protein using Tau-1 staining. […] Signals were captured on KODAK X-OMAT scientific imaging film and quantitated by densitometric scanning and image analysis with NIH image 1.44. […]

| SMILES | specific effect on normalized AT8 signal ([1]; 30 to 360 min after injection) | in vivo tau hyperphosphorylation detected with AP422 ([1]; individual animals) | tau hyperphosphorylation detected with AT8 ([2]; freshly prepared rat brain slices) | AP422 reactivity of tau ([2]; rat hippocampal brain slices, increasing concentrations) | autonomous signs after regaining consciousness [3] |
| --- | --- | --- | --- | --- | --- |
| C=C1[C@@H](O)[C@@H]2O[C@]3(CC[C@H](/C=C/[C@@H](C)[C@@H]4CC(C)=C[C@@]5(O[C@H](C[C@@](C)(O)C(=O)O)CC[C@H]5O)O4)O3)CC[C@H]2O[C@@H]1[C@@H](O)C[C@H](C)[C@H]1O[C@@]2(CCCCO2)CC[C@H]1C [okadaic acid] | impossible to discern | does not always occur | tau hyperphosphorylation induced | induced | – |
| CCCC(C)C1(CC)C(=O)NC(=O)NC1=O (centres unmarked) [pentobarbital] | – | – | – | – | no abnormal autonomous signs |
